Laboratory results published in PMC3684244 (Harmful algae, 2013).
“And” between values parts separate entries of the source, which are not always exact repeats. Equal values may be shown once.

Assays:
[1] = test system: brevenal site on voltage-sensitive sodium channels (VSSCs), rat brain synaptosomes; type: binding
[2] = molecular target: site 5 on voltage-sensitive sodium channels (VSSCs), rat brain synaptosomes; details: read-out: Ki for inhibition of [^3H]-PbTx-3 binding
[3] = test system: site 5 on voltage-sensitive sodium channels (VSSCs), rat brain synaptosomes; details: cited from earlier work

| Compound | Inhibition of [^3H]-brevenol binding (maximum concentration tested) [1] | also measured |
| --- | --- | --- |
| N=C(N)NC(=O)c1nc(Cl)c(N)nc1N [Amiloride] | No displacement (10 ! M) | – |
| C=C/C=C\CC[C@H]1O[C@H]2CC[C@@]3(C)O[C@H]4[C@@H](O)C[C@@]5(C)O[C@@H](CC/C=C(C)/C(C)=C/C=O)[C@@H](C)C[C@H]5O[C@@H]4C[C@@H]3O[C@@H]2CC[C@@]1(C)O [Brevenal, brevenal] | – | Ki [2]: 98 nM; Ki ([1]; read-out: Ki for inhibition of [^3H]-brevenol binding): 75 nM and 74.8 nM; Affinity for inhibiting brevetoxin binding relative to brevetoxins (fold lower) [3]: approximately 100 fold |
| CC1(C)[C@H](C(=O)O[C@H](C#N)c2cccc(Oc3ccccc3)c2)[C@@H]1C=C(Br)Br [Deltamethrin] | No displacement (100 ! M) | – |
| NC1=N[C@H](O)[C@H]2[C@H]3O[C@]4(O)O[C@@H]([C@@H](O)[C@@]2(N1)[C@@H]4O)[C@]3(O)CO [Tetrodotoxin] | No displacement (10 ! M) | – |
| COc1ccc(C(=O)O[C@H]2CC[C@@]3(C)[C@@H]4CC[C@H]5[C@]6(O)C[C@H](O)[C@@]7(O)[C@@H](CN8C[C@@H](C)CC[C@H]8[C@@]7(C)O)[C@]6(O)C[C@@]53O[C@]24O)cc1OC [Veratridine] | No displacement (10 ! M) | – |
| CCN1C[C@]2(COC)[C@H](O)C[C@H](OC)[C@@]34[C@@H]5C[C@@]6(O)[C@H](OC(=O)c7ccccc7)[C@@H]5[C@@](OC(C)=O)([C@@H]([C@H](OC)[C@H]23)[C@@H]14)[C@@H](O)[C@@H]6OC [aconitine] | No displacement (10 ! M) | – |
